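Following 48 hours of exposure in 96-well plates, responses at five concentrations were used to interpolate endpoints linearly. GI50 marks 50% less growth.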 Active and inactive are the calls of the source. Rule as the data show it: active = GI50 up to about 1.1 µM and inactive = higher.
Experiments:
Test in all cases: DTP human tumour cell line panel, 48 h
[1] = test system: A498
[2] = test system: Malme-3M
[3] = test system: CCRF-CEM
[4] = test system: SNB-19
[5] = test system: SNB-78
[6] = test system: MOLT-4
[7] = test system: KM-20L2
[8] = test system: NCI-H23
[9] = test system: OVCAR-3
[10] = test system: COLO 205
[11] = test system: SF-268
[12] = test system: SF-539
[13] = test system: IGROV-1
[14] = test system: SK-OV-3
[15] = test system: K562
[16] = test system: DLD-1
[17] = test system: HCT-15
[18] = test system: NCI-H522
[19] = test system: SK-MEL-5
[20] = test system: OVCAR-4
[21] = test system: DMS-114
[22] = test system: HCC 2998
[23] = test system: ACHN
[24] = test system: HT-29
[25] = test system: CAKI-1
[26] = test system: UO-31
[27] = test system: HL-60
[28] = test system: EKVX
[29] = test system: HOP-92
[30] = test system: KM12
[31] = test system: OVCAR-8
[32] = test system: M14
[33] = test system: NCI-H226
[34] = test system: UACC-257
[35] = test system: 786-0
[36] = test system: SK-MEL-2
[37] = test system: LXFL 529
[38] = test system: RPMI-8226
[39] = test system: SW-620
[40] = test system: SNB-75
[41] = test system: U-251
[42] = test system: SN12C
[43] = test system: LOX IMVI
[44] = test system: HCT-116
[45] = test system: A549
[46] = test system: NCI-H460
[47] = test system: OVCAR-5
[48] = test system: RXF 393
[49] = test system: SF-295
[50] = test system: HOP-18
[51] = test system: M19-MEL
[52] = test system: SK-MEL-28
[53] = test system: DMS-273
[54] = test system: UACC-62
[55] = test system: TK-10
[56] = test system: HOP-62
[57] = test system: SR

Compound: COc1cc2c3c(c1OC)-c1ccccc1C(C(OC(C)=O)c1ccccc1)C3N(C)CC2 (centres undefined)
- GI50 [1]: 31.7 µM (inactive)
- GI50 [2]: 33.2 µM (inactive)
- GI50 [3]: 25.1 µM (inactive)
- GI50 [4]: 48.4 µM (inactive)
- GI50 [5]: 32.7 µM (inactive)
- GI50 [6]: 7.59 µM (inactive)
- GI50 [7]: 27.1 µM (inactive)
- GI50 [8]: 38.7 µM (inactive)
- GI50 [9]: 43.4 µM (inactive)
- GI50 [10]: 30.3 µM (inactive)
- GI50 [11]: 93.8 µM (inactive)
- GI50 [12]: > 100 µM (inactive)
- GI50 [13]: > 100 µM (inactive)
- GI50 [14]: > 100 µM (inactive)
- GI50 [15]: > 10 µM (inactive)
- GI50 [16]: 5.97 µM (inactive)
- GI50 [17]: 27.7 µM
- GI50 [18]: 49.2 µM (inactive)
- GI50 [19]: 18.1 µM (inactive)
- GI50 [20]: 9.16 µM (inactive)
- GI50 [21]: 28.4 µM (inactive)
- GI50 [22]: 6.81 µM (inactive)
- GI50 [23]: 14.8 µM (inactive)
- GI50 [24]: 38.3 µM (inactive)
- GI50 [25]: 63 µM (inactive)
- GI50 [26]: 57.1 µM (inactive)
- GI50 [27]: 5.4 µM (inactive)
- GI50 [28]: > 100 µM (inactive)
- GI50 [29]: 21 µM (inactive)
- GI50 [30]: 25.7 µM (inactive)
- GI50 [31]: 34.8 µM (inactive)
- GI50 [32]: 51.2 µM (inactive)
- GI50 [33]: 47.2 µM (inactive)
- GI50 [34]: 58.5 µM (inactive)
- GI50 [35]: 74.5 µM (inactive)
- GI50 [36]: 17.2 µM (inactive)
- GI50 [37]: 19.7 µM (inactive)
- GI50 [38]: 5.55 µM (inactive)
- GI50 [39]: 65.3 µM (inactive)
- GI50 [40]: 31.9 µM (inactive)
- GI50 [41]: 34 µM (inactive)
- GI50 [42]: 34.7 µM (inactive)
- GI50 [43]: 44.9 µM (inactive)
- GI50 [44]: 34.5 µM (inactive)
- GI50 [45]: 32.8 µM (inactive)
- GI50 [46]: 30.5 µM (inactive)
- GI50 [47]: > 100 µM (inactive)
- GI50 [48]: 70.6 µM (inactive)
- GI50 [49]: > 100 µM (inactive)
- GI50 [50]: > 100 µM (inactive)
- GI50 [51]: 28.8 µM (inactive)
- GI50 [52]: 31.8 µM (inactive)
- GI50 [53]: 19.3 µM (inactive)
- GI50 [54]: 34 µM (inactive)
- GI50 [55]: > 100 µM (inactive)

Compound: O=C(/C=C\c1cccc2ccccc12)c1ccc(Br)cc1
- GI50 [1]: > 100 µM (inactive)
- GI50 [2]: 31.3 µM (inactive)
- GI50 [3]: 20.9 µM (inactive)
- GI50 [4]: 25.7 µM (inactive)
- GI50 [5]: 20.6 µM (inactive)
- GI50 [6]: 31 µM (inactive)
- GI50 [7]: 16.3 µM (inactive)
- GI50 [8]: 34 µM (inactive)
- GI50 [56]: > 100 µM (inactive)
- GI50 [9]: 18.4 µM (inactive)
- GI50 [10]: 31.1 µM (inactive)
- GI50 [11]: 23.7 µM (inactive)
- GI50 [12]: 22.3 µM (inactive)
- GI50 [13]: 23.6 µM (inactive)
- GI50 [14]: 30.7 µM (inactive)
- GI50 [15]: 18.1 µM (inactive)
- GI50 [16]: 20.5 µM (inactive)
- GI50 [17]: 17.7 µM
- GI50 [18]: 21 µM (inactive)
- GI50 [19]: 19.7 µM (inactive)
- GI50 [20]: 16.4 µM (inactive)
- GI50 [21]: 15 µM (inactive)
- GI50 [22]: 17.5 µM (inactive)
- GI50 [23]: 17.4 µM (inactive)
- GI50 [24]: 18.2 µM (inactive)
- GI50 [25]: 33 µM (inactive)
- GI50 [26]: 19.1 µM (inactive)
- GI50 [27]: 15 µM (inactive)
- GI50 [28]: 24 µM (inactive)
- GI50 [29]: 36.5 µM (inactive)
- GI50 [30]: 15.1 µM (inactive)
- GI50 [31]: 17.5 µM (inactive)
- GI50 [32]: 18.1 µM (inactive)
- GI50 [33]: 50.7 µM (inactive)
- GI50 [34]: 22.3 µM (inactive)
- GI50 [35]: 19.2 µM (inactive)
- GI50 [37]: 18.1 µM (inactive)
- GI50 [38]: 14.8 µM (inactive)
- GI50 [39]: 12.1 µM (inactive)
- GI50 [40]: 21.7 µM (inactive)
- GI50 [41]: 16.1 µM (inactive)
- GI50 [42]: 34.8 µM (inactive)
- GI50 [44]: 16.7 µM (inactive)
- GI50 [45]: > 100 µM (inactive)
- GI50 [46]: 18.4 µM (inactive)
- GI50 [47]: 18 µM (inactive)
- GI50 [49]: 22.4 µM (inactive)
- GI50 [50]: 19.2 µM (inactive)
- GI50 [51]: 19 µM (inactive)
- GI50 [52]: 12.1 µM (inactive)
- GI50 [53]: 16.7 µM (inactive)
- GI50 [54]: 15.2 µM (inactive)
- GI50 [55]: 51.3 µM (inactive)

Compound: N/N=C(/C(=O)Nc1cccc(Cl)c1)C(C(=O)c1ccc(O)cc1O)C1OC(=O)c2ccccc21 (centres undefined)
- GI50 [1]: 25.5 µM (inactive)
- GI50 [2]: > 100 µM (inactive)
- GI50 [3]: 35.1 µM (inactive)
- GI50 [4]: 68.2 µM (inactive)
- GI50 [5]: > 100 µM (inactive)
- GI50 [6]: 31.8 µM (inactive)
- GI50 [7]: > 100 µM (inactive)
- GI50 [8]: 65.5 µM (inactive)
- GI50 [56]: > 100 µM (inactive)
- GI50 [9]: > 100 µM (inactive)
- GI50 [10]: > 100 µM (inactive)
- GI50 [11]: 51.4 µM (inactive)
- GI50 [12]: > 100 µM (inactive)
- GI50 [13]: > 100 µM (inactive)
- GI50 [14]: > 100 µM (inactive)
- GI50 [15]: > 100 µM (inactive)
- GI50 [17]: > 100 µM
- GI50 [18]: 71 µM (inactive)
- GI50 [19]: > 100 µM (inactive)
- GI50 [57]: 40.4 µM (inactive)
- GI50 [20]: > 100 µM (inactive)
- GI50 [21]: > 100 µM (inactive)
- GI50 [22]: > 100 µM (inactive)
- GI50 [23]: > 100 µM (inactive)
- GI50 [24]: > 100 µM (inactive)
- GI50 [26]: > 100 µM (inactive)
- GI50 [27]: > 100 µM (inactive)
- GI50 [28]: > 100 µM (inactive)
- GI50 [30]: > 100 µM (inactive)
- GI50 [31]: > 100 µM (inactive)
- GI50 [32]: > 100 µM (inactive)
- GI50 [33]: 95.1 µM (inactive)
- GI50 [34]: > 100 µM (inactive)
- GI50 [35]: > 100 µM (inactive)
- GI50 [36]: > 100 µM (inactive)
- GI50 [37]: > 100 µM (inactive)
- GI50 [38]: 90.6 µM (inactive)
- GI50 [39]: > 100 µM (inactive)
- GI50 [41]: 46.9 µM (inactive)
- GI50 [42]: > 100 µM (inactive)
- GI50 [43]: 87.7 µM (inactive)
- GI50 [44]: > 100 µM (inactive)
- GI50 [45]: > 100 µM (inactive)
- GI50 [46]: 52.2 µM (inactive)
- GI50 [47]: > 100 µM (inactive)
- GI50 [49]: 85.9 µM (inactive)
- GI50 [51]: > 100 µM (inactive)
- GI50 [52]: > 100 µM (inactive)
- GI50 [53]: 65.9 µM (inactive)
- GI50 [54]: 52.8 µM (inactive)
- GI50 [55]: > 100 µM (inactive)

— ChEMBL document CHEMBL1201862, “PubChem BioAssay data set” (2004)
